Laboratory results taken from patent US20050158817A1, “Method for the production of a fermentation product from an organism” (Technische Universiteit Delft, priority 2003, published 2005).

System: Pseudomonas putida KT2442
Description: In accordance with the method of Weusthuis et al. (2001) Biopolymers 3a: Polyesters I: Biological Systems and Biotechnological Production, Wiley-VCH, pp. 291-316, Pseudomonas putida KT2442 was cultured in 8 litres of medium in a 10-litre fed-batch fermentor at 30° C. […] The carbon source in the culture consisted of free fatty acids obtained from coconut oil (Vereenigde Oliefrabrieken, Rotterdam, the Netherlands) in a concentration of 0.4 vol./vol. % per litre of medium, yielding 131 g dry bacteria mass per litre of medium. This carbon source causes the organism to accumulate polyhydroxy alkanoate inclusion bodies. After fermentation, the batter was stored for a maximum of 3 months at 4-8° C.
250 ml of fermentation batter of Pseudomonas putida KT2442 was stirred for 1 hour using a magnetic agitator. […] After adjusting the pH, the mixture was stirred for 30 minutes using a magnetic agitator, whereafter it was homogenised with the aid of a homogeniser (Constant Cell Disruption Systems, Low March, Leerdam, the Netherlands) having a cell volume of 10 ml. The homogeniser was operated at a temperature of 10° C. and the mixture to be homogenised was cooled between homogenisation passages. The number of homogenisation passages was varied from 0 to 5 and the effect of the homogenisation pressure in 1 passage was assessed at 1.0, 1.3, 1.6 or 2.0 kbar. […]

## N [ammonium hydroxide]
pH 11, zero passages (N), cells stored 9 weeks at 4-8° C.
  release of inclusion bodies into the supernatant without homogenisation: releases a fraction of the inclusion bodies into the supernatant even at zero passages
pre-treatment at pH 11, 1 passage at 1.0, 1.3, 1.6 or 2.0 kbar, compared with untreated cells, FIG. 1
  fraction of free inclusion bodies released from the cells versus homogenisation pressure: more inclusion bodies are released from the cells
